Tests used:
α2 sites [1] = experiment: competitive binding to α2 sites
[2] = biological target: T1, prejunctional alpha2 (α2-adrenoceptor) (Cavia porcellus, UniProt Q60474); experiment: prejunctional alpha2-antagonist activity, isolated superfused guinea pig left atrium (clonidine concentration-response shift); type: cell-based; conditions: clonidine as agonist, superfused with antagonist for thirty minutes, read-out: receptor dissociation constant of the antagonist (KB)
T1 construct: The left atrium is removed, dissected free of extraneous tissue and mounted in a 2 ml superfusion chamber; from tissue; host or cells: guinea pig (male) left atrium, sympathetic nerve endings
T1 sequence (Q60474 1-464): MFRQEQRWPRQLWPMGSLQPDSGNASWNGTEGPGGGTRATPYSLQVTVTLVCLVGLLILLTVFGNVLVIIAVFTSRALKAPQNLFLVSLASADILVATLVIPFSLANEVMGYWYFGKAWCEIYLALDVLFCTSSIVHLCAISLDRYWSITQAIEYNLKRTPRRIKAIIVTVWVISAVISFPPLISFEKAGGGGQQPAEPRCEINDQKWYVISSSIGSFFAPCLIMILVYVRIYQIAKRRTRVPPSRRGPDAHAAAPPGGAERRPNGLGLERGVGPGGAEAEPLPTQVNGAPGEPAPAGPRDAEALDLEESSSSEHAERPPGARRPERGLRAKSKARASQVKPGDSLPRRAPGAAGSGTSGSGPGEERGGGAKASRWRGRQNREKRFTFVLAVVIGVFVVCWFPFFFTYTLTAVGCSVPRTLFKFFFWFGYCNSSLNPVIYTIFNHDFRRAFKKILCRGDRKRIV
Method: Briefly, the heart is removed from a pentobarbital-anesthetized male guinea pig. The left atrium is removed, dissected free of extraneous tissue and mounted in a 2 ml superfusion chamber. The tissue is paced at 60 pulse/minute and the sympathetic nerves excited at 6 minute intervals by field stimulation. The response to nerve stimulation is measured as the difference in contractile force between the basal contraction and peak contraction following a nerve stimulation. A concentration-response curve for clonidine (a known alpha2 -agonist) is prepared by administering increasing concentrations of clonidine following each successive stimulation. The tissue is, then, superfused with the alpha2 -antagonist to be tested for thirty minutes and the clonidine concentration-effect curve is repeated in the presence of antagonist. The receptor dissociation constant of the antagonist (KB) is defined as the antagonist concentration required to shift the log concentration-response curve of the agonist to the right by a factor of 2.
Pharmacol. 309 217-224 (1979). The preferred species of this invention, i.e. the 9-azido-3-methyl-6-chloro compound, has a KB value of 158 nM in the atrium test.

α2 sites [3] = experiment: photolytic inactivation of α2 binding on ultraviolet irradiation
α2 sites [4] = experiment: protection against photolytic deactivation by concomitant adrenoceptor agents; type: binding; conditions: concomitant with the 9-azido-3-methyl-6-chloro compound, ultraviolet light

Q: Which results are given for `CN1CCc2c(Cl)ccc(N=[N+]=[N-])c2CC1` [9-azido-3-methyl-6-chloro compound, 9-azido-6-chloro-3-methyl-2,3,4,5-tetrahydro-1H-3-benzazepine]?
A: mode of binding to α2 sites (α2 sites [1]; without irradiation): bind competitively; Ki (α2 sites [1]; α2 sites): 42 nM; Kb [2]: 158 nM; binding effect when irradiated with ultraviolet light (α2 sites [3]): the binding effect is made irreversible; dependence of photolytic inactivation (α2 sites [3]; irradiated with ultraviolet light): concentration and time dependent

Q: With `COc1cc2nc(N3CCN(C(=O)c4ccco4)CC3)nc(N)c2cc1OC` [Prazosin] as the molecule, how does the “effect of concomitant presence on photolytic deactivation” value (“effect of concomitant presence” below) (α2 sites [4]) read?
A: Its value is “no effect”.

Q: With `Nc1cc(Cl)c(NC2=NCCN2)c(Cl)c1` [p-aminoclonidine] as the molecule, how does the “effect of concomitant presence” value (α2 sites [4]) read?
A: The value was “complete protection”.

Q: Which “effect of concomitant presence” value (α2 sites [4]) does the source give for `Cc1ccc(N(CC2=NCCN2)c2cccc(O)c2)cc1` [phentolamine] here?
A: Its value is “partially blocks the photolytic deactivation”.
